Results reported in patent US20210163593A1, “TREATMENT OF MONOGENIC DISEASES WITH AN ANTI-CD45RC ANTIBODY” (INSERM (INSTITUT NATIONAL DE LA SANTÉ ET DE LA RECHERCHE …, priority 2017, published 2021).

Assays:
Assay type in all cases: in vivo, rat
[1] = system: T CD8^+ CD45RC^high cells; assay: Flow cytometry of T cell subsets in muscle and spleen of WT and Dmd^mdx rats after treatment
Protocol: Muscles of both hind limbs from WT or Dmd^mdx rats were excised and weighed. Muscles were minced and placed in gentle MACS C tubes with collagenase D in the presence of FCS 2%, 1 mM EDTA. Two runs of 30 minutes each in a gentle MACS dissociator were performed with new collagenase added between each run. Cells were suspended in 30 mL of PBS FCS 2%, 1 mM EDTA, were then applied to 15 mL of Hystopaque and centrifuged at 1000 g for 30 minutes without a break. Mononuclear cells were collected from the Hystopaque and PBS interface, washed and suspended in PBS FCS 2%, 1 mM EDTA.
Spleen was harvested, perfused with PBS and digested by collagenase D for 15 minutes at 37° C. Cells were suspended in PBS FCS 2%, 1 mM EDTA and mononuclear cells were recovered as explained above.
Mononuclear cells were stained with antibodies against the following antigens: CD45 (clone OX-1), T-cell receptor (TCR; clone R7/3), CD45RC (clone OX22), CD8 (clone OX8) and CD4 (W3/25), as well as with viability dyes eFluor506 or eFluor450, all from eBiosciences. Analysis was performed on a BD FACS Verse with FACSuite Software version 1.0.6. Post-acquisition analysis was performed with FlowJo software.
(§1) Wild-type (WT) or Dmd^mdx (KO) rats received intraperitoneal injections of a mouse anti-rat CD45RC monoclonal antibody (clone OX22, 2 mg/kg, every 3.5 days) from week 2 of age up to week 12.
(§2) Prednisolone was administered by intraperitoneal injections (0.5 mg/kg, 5 days a week) from week 2 of age up to week 12.

[2] = system: Dmd^mdx rats; assay: Grip test of forelimb muscle strength in Dmd^mdx rats; conditions: ip from week 2 of age, tested at 12 weeks
Protocol: as §1, §2
At week 12 of age treated rats were analyzed for muscle strength using a grip test.
Rats were placed with their forepaws on a grid and were gently pulled backward until they released their grip. A grip meter (Bio-GT3, BIOSEB, France), attached to a force transducer, measured the peak force generated.
To examine whether muscle function was improved by the anti-CD45RC monoclonal antibody treatment, muscle strength was analyzed by a grip test of forelimbs in WT and Dmd^mdx rats at 12 weeks of age after initiation of treatment at 2 weeks of age.

[3] = Weight / animal growth of Dmd^mdx rats during treatment; conditions: ip from week 2 up to week 12 of age
Protocol: FIG. 6 is a set of two graphs showing the weight of wild-type or Dmd^mdx rats during treatment using prednisolone or anti-CD45RC monoclonal antibody. Control littermate wild-type (WT) or Dmd^mdx (KO) rats received intraperitoneal injections of prednisolone or anti-CD45RC monoclonal antibody (OX22) from week 2 up to week 12 of age and weight was recorded at the indicated time points.
as §1, §2

C[C@]12C=CC(=O)C=C1CC[C@@H]1[C@@H]2[C@@H](O)C[C@@]2(C)[C@H]1CC[C@]2(O)C(=O)CO [prednisolone]
T CD8^+ CD45RC^high cells ([1]; ip from week 2 of age, analyzed at 12 weeks, muscle of Dmd^mdx rats and spleen of WT and Dmd^mdx rats): specific decrease | CD4^+CD45RC^high cells ([1]; muscle and spleen of Dmd^mdx rats and spleen of WT rats, data not shown): numerically reduced | CD8^+CD45RC^int/neg cells ([1]; muscle and spleen of Dmd^mdx rats and spleen of WT rats, week 12): maintained | muscle strength (grip test) in treated Dmd^mdx rats compared with WT littermate controls [2]: levels identical to those of WT | muscle strength (grip test) in treated vs. untreated Dmd^mdx rats [2]: increased | animal growth (weight) [3]: severe reduction
